101 molecules from PubChem BioAssay AID488890 (Southern Research Specialized Biocontainment Screening …, 2010) can be followed below.

The test system of this assay is Mycobacterium tuberculosis non-replicating, growth inhibition. The assay can be described thus: growth inhibition of non-replicating M. tuberculosis (AID 488890).

Records with an inconclusive call do not appear. Activity calls are given as the source filed them. The rule behind the calls is not given here.

Regarding `O=C(NCC1CCCCC1)c1ccco1`, the 50% inhibitory concentration (IC50) was 2.18 µM.
In the case of `CC(C)N1C(=O)NC(=O)C2(Cc3cc([N+](=O)[O-])ccc3N(C)C2c2ccccc2)C1=O` (stereo unspecified) it was 14.7 µM (inactive).
In the case of `O=C(NCC1CCCCC1)c1ccc([N+](=O)[O-])cc1` it was 0.61 µM; in that of `OC(CNCCc1ccc(C(F)(F)F)cc1)COc1ccc2ccccc2c1` (stereo unspecified), 8.28 µM; in that of `COC(=O)COc1ccc2c(=O)c(Oc3ccccc3)c(C)oc2c1`, 1.7 µM.
In the case of `CCOC(=O)c1c(C)nc2cc(C)ccn12` it was 5.9 µM.
`N#Cc1nc(-c2cccs2)oc1NCCc1ccccc1`: the concentration for half-maximal inhibition (IC50) is 4.77 µM.
In the case of `Cn1cccc1/C=N\NC(=O)C1COc2ccccc2O1` (stereo unspecified) it was 13.2 µM (inactive); in that of `O=C1C=C(Nc2ccc(F)cc2)c2ccccc2C1=O`, 5.36 µM; in that of `COc1ccc(C2=Nc3ccccc3OC2)cc1`, 5.2 µM.
In the case of `COC(=O)c1ccc(COC(=O)c2ccccn2)cc1` it was 7.11 µM.
In the case of `Cc1ccc(NC(=O)CCSc2nnc(Cc3ccccc3)o2)cc1` it was 2.05 µM; in that of `COc1cccc2cc(C(=O)c3ccc([N+](=O)[O-])cc3)oc12`, 6.05 µM; in that of `Fc1ccc(N2CCN(Cc3nnc(-c4ccccc4)o3)CC2)cc1`, 18.9 µM (inactive).
As for `Cc1ccc(N2NC(=O)/C(=C/C=C/c3ccco3)C2=O)cc1C`, the IC50 is 3.72 µM.
In the case of `O=C(Nc1nc2ccccc2[nH]1)c1cccc([N+](=O)[O-])c1` it was 33.2 µM (inactive).
In the case of `CCCCN(C)S(=O)(=O)c1ccc(C(=O)Nc2nnc(-c3ccco3)o2)cc1` it was 23 µM (inactive).
Take `COCc1cc(=O)[nH]c(Nc2nc3ccccc3o2)n1`: the concentration for half-maximal inhibition (IC50) was 1.58 µM.
In the case of `Cc1ccc2oc(=O)c3cc(C(=O)NCCCN4CCCCCC4)sc3c2c1` it was 15.8 µM (inactive).
In the case of `CCc1ccc(NC(=O)COc2ccc3c(c2)OCO3)cc1` it was 5.33 µM; in that of `COc1ccc(C(=O)NN/C(C)=C/C(=O)c2ccccc2)cc1`, 1.34 µM; in that of `COc1ccc(CN=C(C#N)C2=C(O)c3ccccc3C2=O)cc1`, 8.56 µM.
In the case of `COc1ccc2c([N+](=O)[O-])c(N3CCCC3)[nH]c2c1` it was 36 µM (inactive); in that of `CCOc1ccc2nc(NC(=O)c3cnc(C)cn3)sc2c1`, 4.32 µM; in that of `O=C(NCCC1CCCC1)c1cccs1`, 1.37 µM.
On to `CCOC(=O)c1ccc(NC2OC(=O)c3ccccc32)cc1` (stereo unspecified), for which the IC50 is 3.99 µM.
In the case of `O=C(Oc1ccccc1)c1ccc(NC(=O)c2ccco2)cc1` it was 7.33 µM; in that of `C/C(=N\Nc1cccc2cccnc12)c1ccccn1`, 32.7 µM (inactive).
In the case of `O=C(COc1ccc(F)cc1)N/N=C/c1cccc2cccnc12` it was 3.84 µM.
In the case of `COC(=O)[C@H](CC(C)C)NC(=O)NCCC1=CCCCC1` it was 12.8 µM (inactive); in that of `N#CC(C(=O)NCc1ccco1)c1nc2ccccc2nc1N1CCOCC1` (stereo unspecified), 15.9 µM (inactive); in that of `On1onc2c3cc(-c4ccccc4)nc3ccc21`, 0.31 µM.
With `Cc1ccc2c(c1)c1c(n2CC(O)CNC2CCCCC2)CCCC1` (stereo unspecified), the IC50 is 16.7 µM (inactive).
In the case of `O=C(Nc1nccs1)c1ccc(Br)cc1` it was 39.5 µM (inactive).
In the case of `COc1cc(/C=N/Nc2cccc3cccnc23)cc(OC)c1O` it was 15.2 µM (inactive).
In the case of `Cc1cc(NCc2ccccn2)n2nc(C)c(-c3ccc(Cl)cc3)c2n1` it was 1.85 µM; in that of `Cc1cc(C(=O)NNc2cc(Cl)ccc2Cl)no1`, 18.7 µM (inactive); in that of `CN(C)CCC(=O)N1c2ccccc2Sc2ccc(C(F)(F)F)cc21`, 17.9 µM (inactive).
Consider `CC(C)(C)CC(=O)NC(=S)NCc1ccco1`, for which the half-maximal inhibitory concentration (IC50) is 4.56 µM.
On to `O=c1c2ccc(Cl)cc2nc(-c2cccc(C(F)(F)F)c2)n1O`, for which the half-maximal inhibitory concentration (IC50) was 0.33 µM.
Regarding `O=[N+]([O-])c1ccc(CNc2cccc(Cl)c2)s1`, the IC50 is 43.7 µM (inactive).
In the case of `Cc1nc2ccc(NC(=O)c3ccc([N+](=O)[O-])cc3[N+](=O)[O-])cc2s1`, the IC50 is 7.88 µM.
In the case of `COc1ccc(CCCC(=O)NCc2ccccc2)cc1C` it was 5.26 µM; in that of `COC(=O)C1=C(C)N(CC2CC2)C(=NCc2cccc(Cl)c2)N[C@H]1c1ccccc1`, 10.5 µM (inactive).
In the case of `Clc1ccc(OCCOCCN2CCc3ccccc3C2)c(Cl)c1` it was 11.2 µM (inactive); in that of `O=S(=O)(CCN1CCN(c2ccccn2)CC1)c1ccc(Cl)cc1Cl`, 8.61 µM.
In the case of `CCCC(NCC(O)COc1ccc(-c2ccccc2)cc1)c1ccccc1` (stereo unspecified) it was 10.7 µM (inactive).
Take `Cc1ccn2c(NC3CCCC3)c(-c3ccccn3)nc2c1`: the IC50 is 12 µM (inactive).
In the case of `Cc1cc(=O)[nH]c(-n2nc(C)cc2C)n1` it was 4.88 µM.
In the case of `CCOC(=O)COc1ccc2c(c1)c(C(=O)OCC)c(C)n2CC` it was 10.9 µM (inactive).
In the case of `Brc1ccc(CSc2nnc(-c3ccco3)o2)cc1` it was 0.28 µM; in that of `O=C(COc1ccc2ccccc2c1)Nc1ccncc1`, 3.17 µM.
As to `CSc1ccc(C(=O)C2CCCN(Cc3cc4ccccc4[nH]3)C2)cc1` (stereo unspecified), the IC50 is 11.1 µM (inactive).
In the case of `COc1cc(CNCCc2ccccc2)cc(Br)c1OCC(=O)Nc1ccccc1C` it was 8.58 µM; in that of `CC1=NN(C(=O)c2cc(C)nn2C)C(O)(C(F)(F)F)C1` (stereo unspecified), 7.51 µM; in that of `CCOc1ccc(-c2cc(CCCC(=O)NCCC(C)C)no2)cc1`, 18.2 µM (inactive).
In the case of `COc1cccc(NC(=O)c2ccc(C(=O)c3ccccc3)o2)c1` it was 3.36 µM; in that of `Cc1cccc2nc(CSc3nc4cc([N+](=O)[O-])ccc4s3)cn12`, 18.1 µM (inactive).
On to `CN(C)c1c2ccccc2nc2c(F)c(F)c(F)c(F)c12`, for which the half-inhibitory concentration (IC50) was 5.75 µM.
In the case of `Cc1ccc(C(=O)O/N=C(\N)c2cccc([N+](=O)[O-])c2)cc1` it was 7 µM; in that of `CCC1CCCCN1S(=O)(=O)c1ccc(C(=O)Nc2nnc(-c3cccs3)o2)cc1` (stereo unspecified), 11 µM (inactive).
In the case of `O=C(Oc1ccc(F)cc1)c1ccc2c(=O)n3c(nc2c1)CCC3` it was 2.49 µM.
In the case of `Cc1cccc(Cn2ccc(NC(=O)c3ccc4c(c3)OCO4)n2)c1` it was 4.51 µM; in that of `CC1=NN(c2ccc(C(=O)O)cc2)C(=O)/C1=C\c1ccc(OC(=O)c2cccs2)cc1`, 7.5 µM.
As for `COc1ccc2nc(/N=C(\N)NC(=O)C(C)(C)C)nc(C)c2c1`, the IC50 is 17.4 µM (inactive).
In the case of `COc1cc(OC)cc(C(=O)Oc2c(CN3CCOCC3)cc(Cl)c3cccnc23)c1` it was 7.87 µM; in that of `O=C(Nc1nc(-c2cccs2)cs1)c1ccc([N+](=O)[O-])o1`, 2.08 µM; in that of `CN1/C(=C\C(=O)COC(=O)C2COc3ccccc3O2)C(C)(C)c2ccccc21` (stereo unspecified), 5.79 µM.
In the case of `O=C(NNC(=S)NC(=O)c1cn(-c2ccccc2)nc1-c1ccccc1)c1ccncc1` it was 21.9 µM (inactive); in that of `Cc1nc([N+](=O)[O-])c(Br)n1CC(=O)c1ccc2ccccc2c1`, 7.54 µM.
In the case of `N=c1oc2ccc(Cl)cc2cc1C(=O)NC1CCCCCC1` it was 11.6 µM (inactive); in that of `Cc1ccc(CSc2nnc(-c3cccnc3)o2)cc1`, 1.49 µM.
Take `CCCN1C(=O)SC(CC(=O)Nc2ccccc2)C1=O` (stereo unspecified): the IC50 was 17.5 µM (inactive).
In the case of `Oc1ccccc1CN1CCCC(N2CCN(c3cccc(C(F)(F)F)c3)CC2)C1` (stereo unspecified) it was 21.5 µM (inactive); in that of `CCOC(=O)Cc1ccc(NCc2ccc(Cl)cc2)cc1`, 10.8 µM (inactive); in that of `CCc1ccc(OCCNc2cc(N3CCNC(C)C3)ccc2[N+](=O)[O-])cc1` (stereo unspecified), 2.89 µM.
In the case of `O=C1/C(=C/c2ccccn2)COc2ccccc21` it was 15.8 µM (inactive); in that of `CCCn1nnnc1NCc1ccc(CC)cc1`, 8.41 µM.
Turning to `C/C(=N\NC(=O)CCCNc1ccc(C)cc1)c1ccccn1`, the IC50 is 9.07 µM.
Take `CCCCCCn1c(=O)c(C(=O)Nc2nnc(C)s2)c(O)c2ccccc21`: the IC50 was 4.29 µM.
In the case of `O=C(c1cc2ccccc2o1)N1CCN(Cc2ccccc2)CC1` it was 7.64 µM; in that of `O=C(Nc1ccc(-c2nc3ccccc3c(=O)o2)cc1)c1ccco1`, 0.35 µM.
Turning to `CCOC(=O)N1CCC(N2CCCC(C(=O)c3ccc4cc(OC)ccc4c3)C2)CC1` (stereo unspecified), the IC50 was 18.7 µM (inactive).
In the case of `O=C(Oc1cccc2cccnc12)c1cccc([N+](=O)[O-])c1` it was 3 µM; in that of `CCOc1ccc(Nc2cc(C)nc(-n3nc(C)cc3C)n2)cc1`, 3.32 µM.
In the case of `Cn1cccc1/C=N/NC(=O)c1ccncc1` it was 1.96 µM; in that of `OC(C#CCN1CCOCC1)c1cccs1` (stereo unspecified), 7.53 µM; in that of `CCc1nnc(N/N=C/c2ccc(-c3ccc([N+](=O)[O-])cc3)o2)n1N`, 7.59 µM.
In the case of `CC1(C)CC(=O)c2cc(C(=O)NNc3ccccc3)c(=O)n(-c3ccccc3)c2C1` it was 7.49 µM.
Regarding `Cc1cc(C)c2sc(NC(=O)C3=COCCO3)nc2c1`, the concentration for half-maximal inhibition (IC50) is 8.29 µM.
Consider `O=C1C(Nc2ccccc2)=C/C(=N/S(=O)(=O)c2cccs2)c2ccccc21`, for which the IC50 was 12 µM (inactive).
In the case of `O=C(OCc1c(Cl)cccc1Cl)c1ccccn1` it was 6.6 µM; in that of `CNC(=O)COC(=O)c1ccc(-c2nc3ccccc3s2)s1`, 4.97 µM.
`O=C1Nc2cc(C(=O)NCCN3CCCCCC3)ccc2S/C1=C\c1ccccc1`: the IC50 was 12.5 µM (inactive).
In the case of `CCc1ccc(OCC(=O)c2c(O)c3ccccc3oc2=O)cc1` it was 9.35 µM; in that of `COc1ccc(C(=O)COC(=O)c2ccc([N+](=O)[O-])s2)cc1OC`, 2.8 µM; in that of `Cc1cc(C)n(-c2ccc3cccc(NS(C)(=O)=O)c3n2)n1`, 4.85 µM.
In the case of `O=C(Nc1ccc(S(=O)(=O)N2CCOCC2)cc1)c1ccc([N+](=O)[O-])s1` it was 1.59 µM; in that of `CC(C)(C)c1ccc(-c2nc(C#N)c(NCCCn3ccnc3)o2)cc1`, 38.2 µM (inactive).
In the case of `Cc1cc(NCc2ccccn2)n2nc(C)c(-c3ccccc3)c2n1` it was 1.82 µM; in that of `c1ccc2[nH]c(NC3=NCCC3)nc2c1`, 19.2 µM (inactive).

In general, IC50 refers to the concentration that gives 50% inhibition.
